According to ChEMBL document CHEMBL1201862, “PubChem BioAssay data set” (2004):
Activity calls are given as the source filed them.

Key:
HeLa = test: viability loss in HeLa cells – cell-based, ATP luminescence, cherry-pick samples, cytotoxicity control, dose response (AID 687004); type: functional; settings: Homo sapiens
[1] = growth inhibition of yeast DHODH-expressing 3D7 parasites – SYBR Green, dry powder samples, dose response (AID 1159570); type: functional, cell-based;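 also: parasite growth measured after 72 hours of compound exposure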
[2] = toxicity to human HepG2 hepatoma cells – cell-based, plate reader, dry powder samples, cytotoxicity control, dose response (AID 1159569); type: functional;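 also: inhibitor potency with signal falling toward the positive control level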
[3] = P. falciparum Dd2 growth inhibitors, dose response, SYBR Green, cherry-picked samples (AID 1159567); type: functional, cell-based
[4] = Dd2 malaria parasite growth inhibition potency – SYBR Green, dry powder samples, dose response (AID 1159566); type: functional, cell-based;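 also: potency for growth inhibition with lower SYBR green DNA signal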
[5] = growth inhibition of PfATP4-mutant resistant parasites – NITD609-resistant line, SYBR Green, dry powder, dose response (AID 1159571); type: functional, cell-based;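 also: parasites synchronized at ring stage by sorbitol before testing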
cells [6] = type: functional, cell-based
[7] = biological target: T1, Trace amine-associated receptor 1 (Homo sapiens, UniProt Q96RJ0); test: Fluorescence-based cell-based high throughput dose response assay to identify agonists of the human trace amine associated receptor 1 (TAAR1).; type: functional
T1 sequence (Q96RJ0 whole entry): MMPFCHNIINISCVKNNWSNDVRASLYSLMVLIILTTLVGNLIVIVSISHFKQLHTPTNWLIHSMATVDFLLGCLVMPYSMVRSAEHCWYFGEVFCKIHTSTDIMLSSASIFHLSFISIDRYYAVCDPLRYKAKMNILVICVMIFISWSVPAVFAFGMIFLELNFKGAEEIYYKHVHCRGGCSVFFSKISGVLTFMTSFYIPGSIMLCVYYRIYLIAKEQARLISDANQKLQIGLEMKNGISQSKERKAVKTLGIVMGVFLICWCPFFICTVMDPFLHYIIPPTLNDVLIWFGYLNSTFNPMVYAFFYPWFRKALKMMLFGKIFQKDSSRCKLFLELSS

[8] = biological target: T1, Trace amine-associated receptor 1; test: Counterscreen for agonists of the human trace amine associated receptor 1 (hTAAR1): Fluorescence-based cell-based high throughput dose response assay to identify hTAAR1 agonist that also desensitize TAAR1 receptor response.; type: functional
cells [9] = type: functional, cell-based; remark: listed apart in the source
[10] = toxicity to human hepatoma HepG2 cells – cell-based, cherry-picked samples, cytotoxicity control, dose response (AID 1159577); type: functional
[11] = Luminescence-based cell-based high throughput dose response assay to identify activators of the DAF-12 from the parasite S. stercoralis (ssDAF-12).; type: functional
[12] = biological target: T2, Oxysterols receptor LXR-beta (Homo sapiens, UniProt P55055); test: LXR agonists, Gal4 luciferase reporter, dose response, counter-screen for ssDAF-12 agonist project, cell-based, luminescence, HEK293, S. stercoralis campaign (AID 720737); type: functional; settings: read-out: IC50 (the source's name)
T2 sequence (P55055 whole entry): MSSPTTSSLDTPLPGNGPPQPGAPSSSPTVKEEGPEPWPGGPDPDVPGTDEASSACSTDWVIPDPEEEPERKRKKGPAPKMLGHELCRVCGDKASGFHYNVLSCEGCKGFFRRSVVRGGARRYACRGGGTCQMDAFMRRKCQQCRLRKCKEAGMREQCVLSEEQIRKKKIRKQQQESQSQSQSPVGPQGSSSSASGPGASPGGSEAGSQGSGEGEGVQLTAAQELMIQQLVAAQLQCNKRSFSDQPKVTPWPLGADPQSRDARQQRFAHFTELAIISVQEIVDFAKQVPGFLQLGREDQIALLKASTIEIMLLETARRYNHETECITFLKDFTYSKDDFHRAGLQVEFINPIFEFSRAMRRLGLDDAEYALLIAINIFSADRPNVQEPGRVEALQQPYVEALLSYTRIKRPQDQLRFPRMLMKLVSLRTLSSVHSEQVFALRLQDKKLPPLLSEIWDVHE

Albumin = Albumin (Bos taurus, UniProt P02769); test: Counterscreen for inhibitors of T-cell receptor (TCR)-CD3 interaction: Fluorescence-based biochemical high throughput dose response assay to identify inhibitors of T-cell receptor (TCR)-CD3 interaction using a TAMRA-labeled BSA probe.; type: functional
Chain of Albumin (P02769 whole entry): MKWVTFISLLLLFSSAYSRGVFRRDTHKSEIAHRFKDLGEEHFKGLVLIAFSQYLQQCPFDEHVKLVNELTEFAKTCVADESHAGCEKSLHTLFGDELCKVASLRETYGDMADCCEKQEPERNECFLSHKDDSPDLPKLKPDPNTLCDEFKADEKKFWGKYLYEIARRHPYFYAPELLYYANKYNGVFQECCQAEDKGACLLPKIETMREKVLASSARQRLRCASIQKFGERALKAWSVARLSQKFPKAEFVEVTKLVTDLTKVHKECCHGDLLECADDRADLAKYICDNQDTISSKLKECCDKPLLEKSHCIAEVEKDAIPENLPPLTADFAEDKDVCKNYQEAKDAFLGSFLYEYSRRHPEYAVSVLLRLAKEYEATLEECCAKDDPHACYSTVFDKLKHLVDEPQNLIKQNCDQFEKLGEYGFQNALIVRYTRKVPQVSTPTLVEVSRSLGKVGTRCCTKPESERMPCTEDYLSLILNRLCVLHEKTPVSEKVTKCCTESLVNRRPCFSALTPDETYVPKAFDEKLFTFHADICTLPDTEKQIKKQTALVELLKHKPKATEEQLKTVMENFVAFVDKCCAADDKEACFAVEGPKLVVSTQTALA

[13] = reduced cellular PGC1a acetyl-lysine signal – cell-based, cherry-picked samples, dose response (AID 720514); type: functional;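 also: potency may reflect raised or lowered acetylation signal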
[14] = A Cell Based Secondary Assay To Explore Cytotoxicity of Compounds that Sensitize Mycobacterium Tuberculosis to Beta-Lactam Antibiotics.; type: functional
[15] = IC50 of Artemis nuclease activity blockers – biochemical, fluorescence intensity, dose response (AID 720701); type: functional;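 also: Artemis endonuclease enzyme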
[16] = blockers of HIV-1 envelope-mediated cell-cell fusion – cherry-pick, dose response (AID 652057); type: functional, cell-based
[17] = blockers of HIV-1 ZM109 envelope-driven cell-cell fusion – HeLa effector, CEM target cells, luciferase, cherry-pick, dose response (AID 652058); type: functional, cell-based;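 also: luciferase signal from HIV-1 Env mediated cell-cell fusion of effector and target cells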
[18] = HIV-1 AD8 envelope cell-cell fusion blockers – cherry-pick, dose response (AID 652062); type: functional, cell-based;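 also: luciferase signal from cell-cell fusion driven by HIV-1 clade B AD8 Env; potency is for inhibitors of fusion seen as a drop in luminescence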

For `COC(=O)C1=C(C)N(Cc2ccc(Br)cc2)C(=S)NC1c1cccc(Br)c1` (configuration not stated), the AC50 (HeLa) was 38.1 µM (active).

With `COc1ccc2c3c([nH]c2c1)[C@H](CO)N(C(=O)Nc1ccc(F)cc1)CC31CCN(S(=O)(=O)c2cccc(F)c2)CC1` the AC50 [1] was 1.22 µM (active), the AC50 [2] was 22 µM (active) and the AC50 [3] was 0.883 µM (active). For the same compound, the AC50 [4] was 0.751 µM (active) and the AC50 [5] was 0.103 µM (active).

For `COc1ccc(/C=N/CC2COc3ccccc3O2)cc1OC` (configuration not stated), the IC50 (cells [6]) was > 29.9 µM (inactive), the EC50 [7] was 1.44 µM (active) and the IC50 [8] was 18.9 µM (inactive). The EC50 (cells [9]) was > 29.9 µM (inactive).

With `Cc1nnc(SCC(=O)NCCC2=CCCCC2)nc1O` the IC50 (cells [6]) was > 29.9 µM (inactive), the EC50 [7] was 1.25 µM (active) and the IC50 [8] was 7.22 µM (active). For the same compound, the EC50 (cells [9]) was > 29.9 µM (inactive).

For `OC[C@@H]1[C@H](c2ccc(C3=CCCC3)cc2)[C@H]2CN(CCC(F)(F)F)CCCCN12`, the AC50 [3] was 1.2 µM (active) and the AC50 [10] was 18.7 µM (active).

In the case of `Cc1ccc(-c2cc(-c3ccccc3)no2)c(O)c1`, the IC50 [11] is reported as > 67.5 µM (inactive) and the EC50 [12] is reported as > 67.5 µM (inactive).

For `O=C(CNC(=O)c1ccccc1F)NNC(=O)c1ccccc1O`, the IC50 (Albumin) was > 94.1 µM (inactive).

With `CCNC1=NN=C(c2c[nH]c3ccccc23)CS1` the IC50 [11] was > 67.6 µM (inactive) and the EC50 [12] was > 67.6 µM (inactive).

For `C[C@H]1CN([C@@H](C)CO)C(=O)c2cccc(NC(=O)Nc3ccc(C(F)(F)F)cc3)c2O[C@H]1CN(C)C(=O)Nc1cccc2ccccc12`, the AC50 [13] was 8.85 µM (active).

For `c1ccc(-c2ccc(C3=Nn4c(Cn5nnc6ccccc65)nnc4SC3)cc2)cc1`, the CC50 [14] was > 40 µM (active) and the IC50 [15] was > 20 µM (inactive).

With `C[C@H]1CN([C@@H](C)CO)C(=O)Cc2cc(NC(=O)Nc3ccccc3)ccc2O[C@H]1CN(C)S(=O)(=O)c1cccs1` the AC50 [16] was 1.36 µM (active), the AC50 [17] was 1.55 µM (active) and the AC50 [18] was 8.52 µM (active).
